pIC50: −log10 of the molar value. Active and inactive are the calls of the source. No cut-off for these calls is given here.
Assays:
[1] = test system: NCI-H460; test: cells; conditions: Homo sapiens, NCI-H460, 72 h
Description: Antiproliferative activity against human NCI-H460 cells assessed as inhibition of cell growth incubated for 72 hrs by CCK-8 assay

[2] = target: Lysine-specific histone demethylase 1A (Homo sapiens, UniProt O60341)
Description: Inhibition of recombinant human LSD1 using fluorometric substrate by HRP based fluorimeter microplate reader assay

[3] = test system: A549; test: cells; conditions: Homo sapiens, A549, 72 h
Description: Antiproliferative activity against human A549 cells assessed as inhibition of cell growth incubated for 72 hrs by CCK-8 assay

[4] = test system: MGC-803; test: cells; conditions: Homo sapiens, MGC-803, 72 h
Description: Antiproliferative activity against human MGC-803 cells assessed as inhibition of cell growth incubated for 72 hrs by CCK-8 assay

[5] = test system: HeLa; test: Antiproliferative activity against human HeLa cells assessed as inhibition of cell growth incubated for 72 hrs by CCK-8 assay; assay type: functional, cell-based
[6] = in vitro; conditions: human, THLE-2 cells
Description: Antiproliferative activity against human THLE-2 cells assessed as inhibition of cell growth incubated for 72 hrs by CCK-8 assay

[7] = test system: MCF7; test: cells; conditions: Homo sapiens, MCF7, 72 h
Description: Antiproliferative activity against human MCF7 cells assessed as inhibition of cell growth incubated for 72 hrs by CCK-8 assay

[8] = Intrinsic clearance in human liver measured upto 60 mins in presence of NADPH by LC/MS/MS analysis; assay type: ADME, tissue-based; conditions: read-out: CLH
[9] = target: T1, CYP1A2 (Homo sapiens, UniProt P05177); test: Inhibition of CYP1A2 (unknown origin) at 10 uM incubated for 20 mins in presence of NADPH by LC/MS/MS analysis relative to control; assay type: ADME
T1 sequence (P05177 whole entry): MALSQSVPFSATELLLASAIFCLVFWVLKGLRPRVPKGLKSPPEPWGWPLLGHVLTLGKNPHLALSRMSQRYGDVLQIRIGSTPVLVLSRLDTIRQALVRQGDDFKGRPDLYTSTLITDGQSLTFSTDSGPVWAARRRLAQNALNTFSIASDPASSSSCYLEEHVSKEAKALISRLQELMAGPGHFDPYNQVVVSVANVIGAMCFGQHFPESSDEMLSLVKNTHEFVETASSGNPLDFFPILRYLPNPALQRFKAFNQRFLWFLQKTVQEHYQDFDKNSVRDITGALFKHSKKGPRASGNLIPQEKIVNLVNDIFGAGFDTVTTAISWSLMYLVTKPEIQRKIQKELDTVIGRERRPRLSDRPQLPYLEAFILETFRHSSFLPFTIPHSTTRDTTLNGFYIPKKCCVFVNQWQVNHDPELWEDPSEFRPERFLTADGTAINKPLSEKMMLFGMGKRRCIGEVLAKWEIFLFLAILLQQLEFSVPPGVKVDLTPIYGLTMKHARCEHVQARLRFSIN

[10] = target: CYP3A4 (Homo sapiens, UniProt P08684); test: Inhibition of CYP3A4 (unknown origin) at 10 uM incubated for 20 mins in presence of NADPH by LC/MS/MS analysis relative to control; assay type: ADME
Sequence of CYP3A4 (P08684 whole entry): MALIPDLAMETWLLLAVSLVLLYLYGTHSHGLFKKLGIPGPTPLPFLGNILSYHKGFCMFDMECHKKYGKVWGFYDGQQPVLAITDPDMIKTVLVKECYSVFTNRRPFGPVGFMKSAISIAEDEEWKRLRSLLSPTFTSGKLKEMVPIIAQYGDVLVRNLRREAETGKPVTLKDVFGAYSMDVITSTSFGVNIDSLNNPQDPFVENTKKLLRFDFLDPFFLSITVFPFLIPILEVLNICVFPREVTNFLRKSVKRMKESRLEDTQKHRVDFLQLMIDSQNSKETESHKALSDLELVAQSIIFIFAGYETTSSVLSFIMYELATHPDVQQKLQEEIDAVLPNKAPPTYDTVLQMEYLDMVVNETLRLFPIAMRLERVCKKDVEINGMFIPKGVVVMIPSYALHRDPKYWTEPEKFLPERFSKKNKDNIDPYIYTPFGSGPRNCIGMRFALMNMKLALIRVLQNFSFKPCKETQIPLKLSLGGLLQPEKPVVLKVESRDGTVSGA

[11] = test system: A549; test: Induction of apoptosis in human A549 cells at 4 uM incubated for 48 hrs by Annexin V-FITC/PI staining based flow cytometry method; assay type: functional
[12] = target: T2, Amine oxidase [flavin-containing] A (Homo sapiens, UniProt P21397)
T2 sequence (P21397 whole entry): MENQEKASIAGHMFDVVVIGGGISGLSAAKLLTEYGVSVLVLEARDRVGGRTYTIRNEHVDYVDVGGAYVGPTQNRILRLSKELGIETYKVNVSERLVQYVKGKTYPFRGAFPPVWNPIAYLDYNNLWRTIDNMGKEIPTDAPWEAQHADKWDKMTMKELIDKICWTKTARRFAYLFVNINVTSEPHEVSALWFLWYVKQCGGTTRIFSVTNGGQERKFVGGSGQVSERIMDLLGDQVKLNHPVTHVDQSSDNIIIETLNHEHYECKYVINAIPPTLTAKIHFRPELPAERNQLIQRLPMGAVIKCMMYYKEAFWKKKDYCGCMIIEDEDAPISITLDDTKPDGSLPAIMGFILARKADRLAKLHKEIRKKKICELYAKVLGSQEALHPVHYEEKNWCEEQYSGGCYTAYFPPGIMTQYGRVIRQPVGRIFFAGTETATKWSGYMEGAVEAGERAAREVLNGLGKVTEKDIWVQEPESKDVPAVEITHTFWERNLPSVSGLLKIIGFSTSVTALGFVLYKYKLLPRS
Description: Inhibition of recombinant MAO-A (unknown origin) incubated for 60 mins by luminescence based flow cytometry

[13] = target: T3, Amine oxidase [flavin-containing] B (Homo sapiens, UniProt P27338)
T3 sequence (P27338 whole entry): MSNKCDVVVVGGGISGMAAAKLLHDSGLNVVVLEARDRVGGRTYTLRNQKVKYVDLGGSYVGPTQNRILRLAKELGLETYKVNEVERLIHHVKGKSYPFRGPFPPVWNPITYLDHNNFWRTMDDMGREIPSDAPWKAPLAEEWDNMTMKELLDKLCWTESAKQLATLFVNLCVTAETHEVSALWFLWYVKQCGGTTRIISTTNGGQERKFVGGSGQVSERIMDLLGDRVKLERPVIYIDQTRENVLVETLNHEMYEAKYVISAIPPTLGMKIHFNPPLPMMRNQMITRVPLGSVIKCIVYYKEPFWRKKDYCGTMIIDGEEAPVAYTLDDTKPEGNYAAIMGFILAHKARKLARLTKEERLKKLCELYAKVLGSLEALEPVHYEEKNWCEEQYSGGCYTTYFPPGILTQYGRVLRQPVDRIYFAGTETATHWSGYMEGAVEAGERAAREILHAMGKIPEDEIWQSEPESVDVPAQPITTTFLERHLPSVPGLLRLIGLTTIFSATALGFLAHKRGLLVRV
Description: Inhibition of recombinant MAO-B (unknown origin) incubated for 60 mins by luminescence based flow cytometry

[14] = target: CYP2D6 (Homo sapiens, UniProt P10635); test: Inhibition of CYP2D6 (unknown origin) at 10 uM incubated for 20 mins in presence of NADPH by LC/MS/MS analysis relative to control; assay type: ADME
Sequence of CYP2D6 (P10635 whole entry): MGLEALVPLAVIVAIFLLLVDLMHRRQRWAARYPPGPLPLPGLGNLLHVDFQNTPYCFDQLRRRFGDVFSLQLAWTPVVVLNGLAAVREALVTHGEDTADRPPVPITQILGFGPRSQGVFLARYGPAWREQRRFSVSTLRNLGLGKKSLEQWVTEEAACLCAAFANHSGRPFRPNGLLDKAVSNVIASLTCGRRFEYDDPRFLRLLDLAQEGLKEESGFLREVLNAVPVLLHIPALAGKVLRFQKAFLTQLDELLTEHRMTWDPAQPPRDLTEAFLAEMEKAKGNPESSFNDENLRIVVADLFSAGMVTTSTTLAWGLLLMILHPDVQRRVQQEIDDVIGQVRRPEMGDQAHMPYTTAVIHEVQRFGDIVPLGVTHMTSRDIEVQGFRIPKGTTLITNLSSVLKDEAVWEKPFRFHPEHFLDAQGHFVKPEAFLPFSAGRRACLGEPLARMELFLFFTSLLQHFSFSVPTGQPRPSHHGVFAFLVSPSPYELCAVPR

[15] = test system: A549; test: Antitumor activity against human A549 cells xenografted in BALB/c mouse assessed as reduction in tumor growth at 10 mg/kg,ip administrated for 15 days; assay type: functional, organism-based; conditions: time 15.0 day
[16] = target: CYP2C19 (Homo sapiens, UniProt P33261); test: Inhibition of CYP2C19 (unknown origin) at 10 uM incubated for 20 mins in presence of NADPH by LC/MS/MS analysis relative to control; assay type: ADME
Sequence of CYP2C19 (P33261 whole entry): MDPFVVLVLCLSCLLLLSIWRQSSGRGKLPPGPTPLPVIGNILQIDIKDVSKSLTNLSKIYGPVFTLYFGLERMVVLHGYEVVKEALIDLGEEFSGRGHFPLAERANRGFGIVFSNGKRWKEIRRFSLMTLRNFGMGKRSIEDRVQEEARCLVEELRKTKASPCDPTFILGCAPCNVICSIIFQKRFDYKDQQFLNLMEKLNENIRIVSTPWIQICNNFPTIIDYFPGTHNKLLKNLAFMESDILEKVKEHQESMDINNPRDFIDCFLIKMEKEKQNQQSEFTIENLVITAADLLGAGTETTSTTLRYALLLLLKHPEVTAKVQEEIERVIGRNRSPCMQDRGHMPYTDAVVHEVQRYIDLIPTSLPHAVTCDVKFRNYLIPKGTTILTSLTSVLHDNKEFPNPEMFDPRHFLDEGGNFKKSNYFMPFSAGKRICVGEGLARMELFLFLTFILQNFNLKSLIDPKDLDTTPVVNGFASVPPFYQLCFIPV

[17] = Intrinsic clearance in human liver microsomes measured upto 60 mins in presence of NADPH by LC/MS/MS analysis; assay type: ADME, Microsome; conditions: read-out: CLH
[18] = Toxicity in BALB/c mouse xenografted with human A549 cells assessed as change in body weight at 10 mg/kg,ip administrated for 15 days; assay type: organism-based; conditions: in vivo, 360 h, time 15 day
[19] = Half life in human liver microsomes measured upto 60 mins in presence of NADPH by LC/MS/MS analysis; assay type: ADME, Microsome
[20] = target: CYP2C9 (Homo sapiens, UniProt P11712); test: Inhibition of CYP2C9 (unknown origin) at 10 uM incubated for 20 mins in presence of NADPH by LC/MS/MS analysis relative to control; assay type: ADME
Sequence of CYP2C9 (P11712 whole entry): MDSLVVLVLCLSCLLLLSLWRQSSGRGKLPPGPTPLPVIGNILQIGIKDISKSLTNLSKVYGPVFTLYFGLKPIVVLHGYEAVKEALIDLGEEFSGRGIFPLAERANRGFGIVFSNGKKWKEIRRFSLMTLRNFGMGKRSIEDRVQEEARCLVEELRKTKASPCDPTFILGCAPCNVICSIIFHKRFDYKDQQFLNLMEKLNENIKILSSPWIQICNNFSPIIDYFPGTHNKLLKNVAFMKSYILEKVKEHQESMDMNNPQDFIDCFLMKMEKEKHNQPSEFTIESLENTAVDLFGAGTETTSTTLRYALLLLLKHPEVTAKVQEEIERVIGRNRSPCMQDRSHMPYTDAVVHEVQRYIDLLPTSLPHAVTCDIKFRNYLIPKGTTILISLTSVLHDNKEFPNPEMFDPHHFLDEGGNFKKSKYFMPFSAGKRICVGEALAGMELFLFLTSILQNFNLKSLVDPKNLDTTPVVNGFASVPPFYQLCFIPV

[21] = target: Voltage-gated inwardly rectifying potassium channel KCNH2 (Homo sapiens, UniProt Q12809); test: Inhibition of human ERG stably expressed in CHO cells by patch clamp assay; assay type: toxicity, cell-based
Sequence of Voltage-gated inwardly rectifying potassium channel KCNH2 (Q12809 whole entry): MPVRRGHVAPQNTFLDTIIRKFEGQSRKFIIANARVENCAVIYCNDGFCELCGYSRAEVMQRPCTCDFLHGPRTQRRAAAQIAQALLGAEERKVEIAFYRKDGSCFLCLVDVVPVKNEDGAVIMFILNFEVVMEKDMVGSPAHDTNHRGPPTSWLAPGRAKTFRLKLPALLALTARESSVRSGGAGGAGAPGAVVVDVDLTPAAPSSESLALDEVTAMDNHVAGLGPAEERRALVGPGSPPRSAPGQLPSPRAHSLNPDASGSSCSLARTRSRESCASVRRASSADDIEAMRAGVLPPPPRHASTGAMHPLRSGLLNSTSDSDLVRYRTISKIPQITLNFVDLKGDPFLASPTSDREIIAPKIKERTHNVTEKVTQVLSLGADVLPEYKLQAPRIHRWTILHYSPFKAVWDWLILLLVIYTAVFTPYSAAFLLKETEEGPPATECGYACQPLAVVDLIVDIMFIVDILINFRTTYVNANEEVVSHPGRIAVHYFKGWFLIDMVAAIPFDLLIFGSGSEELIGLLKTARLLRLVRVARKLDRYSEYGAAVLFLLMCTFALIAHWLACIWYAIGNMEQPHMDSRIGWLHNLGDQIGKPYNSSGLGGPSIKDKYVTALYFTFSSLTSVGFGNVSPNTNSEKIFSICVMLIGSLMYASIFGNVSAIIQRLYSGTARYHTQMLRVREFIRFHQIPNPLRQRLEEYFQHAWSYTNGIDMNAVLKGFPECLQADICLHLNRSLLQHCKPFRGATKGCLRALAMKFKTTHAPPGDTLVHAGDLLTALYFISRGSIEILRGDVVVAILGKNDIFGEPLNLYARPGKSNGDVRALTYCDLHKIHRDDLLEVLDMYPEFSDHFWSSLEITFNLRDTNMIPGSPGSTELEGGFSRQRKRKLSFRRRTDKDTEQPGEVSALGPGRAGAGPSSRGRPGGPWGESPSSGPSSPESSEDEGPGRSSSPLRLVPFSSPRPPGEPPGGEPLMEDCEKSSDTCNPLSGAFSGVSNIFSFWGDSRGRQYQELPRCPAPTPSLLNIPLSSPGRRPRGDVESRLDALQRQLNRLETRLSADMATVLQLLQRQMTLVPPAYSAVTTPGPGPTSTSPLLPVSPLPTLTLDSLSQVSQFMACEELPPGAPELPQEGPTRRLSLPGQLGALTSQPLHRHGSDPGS

Row | Structure (SMILES) | pIC50 [1] | pIC50 [2] | pIC50 [3] | pIC50 [4] | pIC50 [5] | IC50 at 72 h [6] [µM] | pIC50 [7] | also measured
1 | Cc1cc(C)cc(-c2cc3[nH]cc(C(=O)N4CCC(N)CC4)c3cc2-c2ccc(C#N)cc2)c1 | 4.87 | 7.21 | 5.28 | 5.06 | 5.00 | 11.8 | 5.15 | –
2 | Cc1ccc(-c2cc3[nH]cc(C(=O)N4CCC(N)CC4)c3cc2-c2ccc(C#N)cc2)cc1C | 4.73 | 7.30 | 5.37 | 4.81 | 4.86 | 20.8 | 4.83 | –
3 | Cc1ccc(-c2cc3[nH]cc(C(=O)N4CCC(N)CC4)c3cc2-c2ccc(C#N)c(F)c2)cc1 | 4.75 | 7.06 | 5.57 | 4.92 | 4.87 | 13.3 | 4.83 | –
4 | CCc1ccc(-c2cc3[nH]cc(C(=O)N4CCC(N)CC4)c3cc2-c2ccc(C#N)cc2)cc1 | 4.57 | 6.91 | 4.76 | 4.89 | 4.83 | 29.6 | 4.83 | –
5 | Cc1ccc(-c2cc3[nH]cc(C(=O)N4CCC(N)CC4)c3cc2-c2ccc(C#N)cc2)cc1 | 4.56 | 7.28 | 5.38 | 5.03 | 4.85 | 23.9 | 5.00 | –
6 | Cc1ccc(-c2cc3[nH]cc(C(=O)N4CCC(N)CC4)c3cc2-c2ccc(C#N)cc2)c(F)c1 | 4.55 | 7.20 | 5.64 | 4.62 | 4.57 | 27.8 | 4.77 | –
7 | Cc1ccc(-c2cc3[nH]cc(C(=O)N4CCC(N)CC4)c3cc2-c2ccc(C#N)cc2)cc1F | 4.53 | 6.99 | 5.46 | 4.81 | 4.78 | 29.9 | 4.99 | –
8 | Cc1ccc(-c2cc3[nH]cc(C(=O)NCC4CCNCC4)c3cc2-c2ccc(C#N)cc2)cc1 | 5.03 | 7.22 | 4.81 | 5.01 | 4.90 | 16.1 | 5.07 | –
9 | Cc1ccc(-c2cc3[nH]cc(C(=O)N4CCC[C@H](N)C4)c3cc2-c2ccc(C#N)cc2)cc1 | 4.79 | 7.07 | 5.06 | 5.05 | 4.94 | 17.5 | 5.21 | –
10 | Cc1ccc(-c2cc3occ(CN4CCC[C@H](N)C4)c3cc2-c2ccc(C#N)cc2)cc1 | 5.32 | – | 5.44 | 4.94 | 4.99 | 5.7 | 4.98 | CLint scaled [8]: 22.1 mL/min/kg; inhibition at 20 min, 10 µM [9]: 4.9%; inhibition at 20 min, 10 µM [10]: 19%; Activity [11]: 20.94%; pIC50 [12]: < 4.70; pIC50 [13]: < 4.70; inhibition at 20 min, 10 µM [14]: 88.6%; Activity [15]: Active; inhibition at 20 min, 10 µM [16]: 10.5%; microsomal CLint [17]: 24.5 µL/min/mg; Activity [18]: Non-Toxic; half-life [19]: 56.6 min; inhibition at 20 min, 10 µM [20]: 3.6%; pIC50 [21]: 5.22
11 | Cc1ccc(-c2cc3[nH]cc(C(=O)NC4CCNCC4)c3cc2-c2ccc(C#N)cc2)cc1 | – | 6.47 | – | – | – | – | – | –
12 | Cc1ccc(-c2cc3c(cc2-c2ccc(C#N)cc2)c(C(=O)N2CCC(N)CC2)cn3C)cc1 | 5.33 | 7.92 | 5.26 | 5.28 | 5.15 | 7.3 | 5.15 | –
13 | Cc1ccc(-c2cc3c(cc2-c2ccc(C#N)cc2)c(C(=O)N2CCC(N)CC2)cn3Cc2cccc(C#N)c2)cc1 | 5.11 | 6.79 | 5.47 | 5.34 | 5.18 | 5.8 | 5.17 | –
14 | Cc1ccc(-c2cc3[nH]cc(C(=O)NCCCN)c3cc2-c2ccc(C#N)cc2)cc1 | – | 6.82 | – | – | – | – | – | –
15 | Cc1ccc(-c2cc3[nH]cc(C(=O)N4CCNCC4)c3cc2-c2ccc(C#N)cc2)cc1 | 4.65 | 7.21 | 5.64 | 5.01 | 4.82 | 19.1 | 4.91 | –
